Common to all, as to test: Whole-cell binding assay, competition with 125I-GIP1-42
Common to all, as to design: acylated tirzepatide to the full-length or modified; Flag; expressed in transfected cells

In assay [1] the target is T1, GIPR (Homo sapiens, UniProt P48546, D191A/Q138A/R196A).
T1 sequence (P48546 22-466 Q138A/D191A/R196A): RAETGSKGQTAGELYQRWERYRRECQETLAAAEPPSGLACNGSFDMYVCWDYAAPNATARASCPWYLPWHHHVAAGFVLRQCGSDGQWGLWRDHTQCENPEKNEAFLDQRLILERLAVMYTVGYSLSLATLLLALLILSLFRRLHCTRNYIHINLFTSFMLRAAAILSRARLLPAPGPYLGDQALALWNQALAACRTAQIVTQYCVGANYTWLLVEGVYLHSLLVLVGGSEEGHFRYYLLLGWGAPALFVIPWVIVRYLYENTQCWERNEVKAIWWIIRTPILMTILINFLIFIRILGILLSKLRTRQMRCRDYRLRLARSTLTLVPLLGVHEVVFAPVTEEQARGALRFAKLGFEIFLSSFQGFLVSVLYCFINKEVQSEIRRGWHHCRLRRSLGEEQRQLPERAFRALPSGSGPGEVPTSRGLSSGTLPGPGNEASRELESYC
Particulars: GIPR Q138A/D191A/R196A, CHO-K1. In short, it runs like this:
(§1)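 Transiently transfected CHO-K1 cells expressing WT or mutant GIPR were washed in F-12 with 0.1% BSA or 0.1% casein and 33 mM HEPES, then incubated 2 h at 37 °C. After ice-cold PBS washes, cells were lysed and bound radioactivity counted (CPM).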

The target in assay [2] is T2, GIPR (Homo sapiens, UniProt P48546, Q30A).
T2 sequence (P48546 22-466 Q30A): T1 sequence (P48546 22-466 Q138A/D191A/R196A) with Q9A, A117Q, A170D, A175R
The note with it: GIPR Q30A, CHO-K1. In outline:
as §1

Assay [3] addresses T3, GIPR (Homo sapiens, UniProt P48546, R196A).
T3 sequence (P48546 22-466 R196A): T1 sequence (P48546 22-466 Q138A/D191A/R196A) with A117Q, A170D
Particulars: GIPR R196A, CHO-K1. In outline:
as §1

Where [4] appears, read: read-out: binding pIC50 (converted).

Where a chain is given by its changes, count along the chain named.

Take `CCCCCCCCCCCCCCCC(=O)N[C@@H](CCC(=O)NCCCC[C@H](NC(=O)[C@H](CC(=O)O)NC(=O)[C@H](CO)NC(=O)[C@@H](NC(=O)[C@H](Cc1ccccc1)NC(=O)[C@@H](NC(=O)CNC(=O)[C@H](CCC(N)=O)NC(=O)C(C)(C)NC(=O)[C@@H](N)Cc1c[nH]cn1)[C@@H](C)O)[C@@H](C)O)C(=O)N[C@@H](CO)C(=O)N[C@@H](CCCCN)C(=O)N[C@@H](Cc1ccc(O)cc1)C(=O)N[C@@H](CC(C)C)C(=O)N[C@@H](CC(=O)O)C(=O)N[C@@H](CCC(=O)O)C(=O)N[C@@H](CCCNC(=N)N)C(=O)N[C@@H](C)C(=O)N[C@@H](C)C(=O)N[C@@H](CCC(N)=O)C(=O)N[C@@H](CC(=O)O)C(=O)N[C@@H](Cc1ccccc1)C(=O)N[C@H](C(=O)N[C@@H](CCC(N)=O)C(=O)N[C@@H](Cc1c[nH]c2ccccc12)C(=O)N[C@@H](CC(C)C)C(=O)N[C@@H](CC(C)C)C(=O)N[C@@H](CC(=O)O)C(=O)NCC(=O)NCC(=O)N1CCC[C@H]1C(=O)N[C@@H](CO)C(=O)N[C@@H](CO)C(=O)NCC(=O)N[C@@H](C)C(=O)N1CCC[C@H]1C(=O)N1CCC[C@H]1C(=O)N1CCC[C@H]1C(=O)N[C@@H](CO)C(N)=O)C(C)C)C(=O)O` [Peptide 20]: the “binding Span” value was 1.03 ± 0.94 % WT at GIPR [1], 92.75 ± 4.50 % WT on GIPR [2] and 71.10 ± 3.42 % WT on GIPR [3]. For the same compound, the IC50 on GIPR [1] (setting [4]) was 0.0024 µM; on GIPR [2] (setting [4]), 0.017 µM; on GIPR [3] (setting [4]), 0.0145 µM.

The record behind these values is paper PMC8881610 (Nature Communications, 2022).
